Experimental data taken from PMC9440176, “Novel benzylidene benzofuranone analogues as potential anticancer agents: design, synthesis and in vitro evaluation based on CDK2 inhibition assays” (3 Biotech, 2022).

System: not listed separately
Experiment: ABTS.+ radical scavenging assay
Details: not given
Protocol: The assay was performed in a 96-well plate by serial dilution method. A 2 mM ABTS^.+ working solution was prepared in a phosphate buffer (Zheleva-Dimitrova et al [2010]).To this, 200 μL of aqueous potassium per sulfate (70 mM) solution was added and the solution was incubated for 24 h in the dark at room temperature to develop a blue-green color. To 30 μL of ABTS^.+ working solution, 50 μL of different concentrations (3.9–1000 μM) of the test sample solution and 170 μL of phosphate buffer (pH-7.4) were added in a well. The plate was then incubated in the dark at room temperature for 10 min. Then absorbance was measured at 690 nm using Elisa reader. Quercetin and ascorbic acid were used as standards. The percentage scavenging of ABTS^.+ was calculated using the formula, (Control Absorbance–Test Absorbance)*100/(Control Absorbance) and the anti-oxidant activity was expressed in terms of IC50 value.

Q: Which IC50 does the source give for `CCCN1CC=C(c2c(OC)cc(OC)c3c2O/C(=C\c2ccc4ccccc4c2)C3=O)CC1` [NPA1] here?
A: The IC50 was 101 ± 2.81 µM.

Q: For `CCCN1CC=C(c2c(OC)cc(OC)c3c2O/C(=C\c2ccc(N(C)C)cc2)C3=O)CC1` [NPA2], which IC50 is on record?
A: The IC50 was 99.3 ± 1.14 µM.

Q: With `CCCN1CC=C(c2c(OC)cc(OC)c3c2O/C(=C\c2ccccc2Br)C3=O)CC1` [NPA3] as the compound, how does the IC50 read?
A: The IC50 was 123 ± 4.55 µM.

Q: With `CCCN1CC=C(c2c(OC)cc(OC)c3c2O/C(=C\c2ccc(Cl)cc2)C3=O)CC1` [NPA4] as the compound, how does the IC50 read?
A: Its IC50 is 134 ± 3.71 µM.

Q: For `CCCN1CC=C(c2c(OC)cc(OC)c3c2O/C(=C\c2ccc(OC)c(OC)c2)C3=O)CC1` [NPA5], which IC50 is on record?
A: Its IC50 is 76.1 ± 1.75 µM.

Q: With `O=c1c(O)c(-c2ccc(O)c(O)c2)oc2cc(O)cc(O)c12` [Quercetin, reference compound] as the compound, how does the IC50 read?
A: Its IC50 is 39 ± 0.58 µM.

Target: CDK2/Cyclin A (Homo sapiens, UniProt P24941)
Experiment: CDK2/cyclin A inhibitory assay, Z'-LYTE FRET kinase assay
Format: biochemical
Details: concentration of 100 micro molar; 1000 ng/ml kinase, 1000 µM ATP
Source text: Z’-LYTE® technology involves homogeneous assay design based on FRET and is a universal platform for both screening as well as profiling protein kinases. The assay uses a peptide substrate labeled with two different fluorophores, coumarin donor and fluorescein acceptor on each end. These two fluorophores make up a FRET pair, which allows the transfer of energy when both are present on the same molecule. The initial kinase reaction transfers the ϒ-phosphate of ATP to a tyrosine or serine/threonine residue on the substrate. In a secondary reaction, referred to as the development reaction, a site-specific protease recognizes and cleaves only non-phosphorylated peptide, while phosphorylated substrate remains uncleaved. […] Upon excitation of Coumarin at 400 nm, the FRET signal is measured as a ratio between the Coumarin donor emission at 445–460 nm and the fluorescein acceptor emission at 520–535 nm(Lebakken et al. [2007]).
Initial ten-fold and two-fold dilutions of Kinase and ATP concentrations were used to choose the optimal Kinase and ATP concentration based on the % Phosphorylation.
The assay was carried out according to the kit instructions (384 well format). Briefly, 5X kinase buffer [250 mM HEPES (pH 7.5), 50 mM MgCl2, 5 mM EGTA, 0.05% BRIJ-35] was diluted to 1X using distilled water. The phosphor peptide positive control (Z’-LYTE® Tyr 4 phospho-peptide) and the non-phosphorylated negative control (Z’-LYTE® Tyr 4 peptide) were then diluted to 1:500 with 1× kinase buffer to 2 μM. […] Working development solution was then made by diluting 12 μL of the provided stock solution with 388 μL of the provided development buffer. Aliquots (20 μL) of each peptide mixture were then added to the wells of a Corning 3914 solid white microplate in replicates of 8. The development reaction was initiated by the addition of 10 μL of working development-solution to all the wells. Further, the plates were allowed to incubate at room temperature for 60 min. Reactions were then stopped by the addition of 10 μL of stop solution (Jia et al. [2008]).
Reactions were quantitated using a Tecan Robotic Microplate Reader. Reader control, blank subtraction, ratio metric calculations and finally graph plotting were carried out using Gen5™ Data Analysis Software.
The CDK2/Cyclin A assay was carried out as per the manufacturer’s instruction using suitable controls and standard.
The inhibitory assay was carried out using the stock of 10 mM in DMSO. Samples were further serially diluted to obtain concentrations of 100 μM. The concentrations were chosen based on the IC50 values obtained in the MTT assay. A total of 23 analogues were selected for the assay based on their antiproliferative activity. Further, selected compounds were screened and tested against the target CDK2/Cyclin A, and their % phosphorylation and % inhibition were recorded.

Q: With `CCCN1CC=C(c2c(OC)cc(OC)c3c2O/C(=C\c2ccc4ccccc4c2)C3=O)CC1` [NPA1] as the compound, how does the “% inhibition on CDK2/cyclin A” value read?
A: The value was 16.089%.

Q: With `CCCN1CC=C(c2c(OC)cc(OC)c3c2O/C(=C\c2ccc(N(C)C)cc2)C3=O)CC1` [NPA2] as the compound, how does the “% inhibition on CDK2/cyclin A” value read?
A: Its value is 13.664%.

Q: Which “% inhibition on CDK2/cyclin A” value does the source give for `CCCN1CC=C(c2c(OC)cc(OC)c3c2O/C(=C\c2ccccc2Br)C3=O)CC1` [NPA3] here?
A: Its value is 17.045%.

Q: With `CCCN1CC=C(c2c(OC)cc(OC)c3c2O/C(=C\c2ccc(Cl)cc2)C3=O)CC1` [NPA4] as the compound, how does the “% inhibition on CDK2/cyclin A” value read?
A: Its value is 14.753%.

Q: With `CCCN1CC=C(c2c(OC)cc(OC)c3c2O/C(=C\c2ccc(OC)c(OC)c2)C3=O)CC1` [NPA5] as the compound, how does the “% inhibition on CDK2/cyclin A” value read?
A: Its value is 12.547%.

System: normal epithelial kidney cells (Vero)
Experiment: MTT cytotoxicity assay on Vero
Format: cell-based
Details: 24 h, read-out: Inhibition of cell proliferation, IC50, Vero
Protocol: (§1) The monolayer cell culture was trypsinized and the cell count was adjusted to 5.0 × 10^5 cells/ml using respective media containing 10% FBS. To each well of the 96-well microtiter plate, 100 µL of the diluted cell suspension (50,000cells/well) was added. After 24 h, when a partial monolayer was formed, the supernatant was flicked off, the monolayer was then washed once again with the medium and 100 µL of different test concentrations of test drugs were added on to the partial monolayer in microtiter plates. The plates were then incubated at 37 °C for 24 h in 5% CO2 atmosphere. After incubation, the test solutions in the wells were discarded and 100 µL of MTT (5 mg/10 ml of MTT in PBS) was added to each well. The plates were then incubated for 4 h at 37 °C in 5% CO2 atmosphere. The supernatant was then removed and 100 µL of DMSO was added and the plates were gently shaken to solubilize the formed formazan. The absorbance was measured using a microtiter plate reader at a wavelength of 590 nm. The percentage growth inhibition was thus calculated using the following formula and the concentration of the test drug required to inhibit the cell growth by 50% (IC50) values is generated from the dose–response curves for each one of the cell lines (Meerloo et al. [2011]).
(§2) The test compounds were screened for their in vitro cytotoxicity by MTT assay against two cancer cell lines, namely MCF-7, HCT-116 and normal epithelial kidney cells (Vero). Doxorubicin was used as a reference standard.

Q: With `CCCN1CC=C(c2c(OC)cc(OC)c3c2O/C(=C\c2ccc4ccccc4c2)C3=O)CC1` [NPA1] as the compound, how does the IC50 read?
A: Its IC50 is 166 µM.

Q: Which IC50 does the source give for `CCCN1CC=C(c2c(OC)cc(OC)c3c2O/C(=C\c2ccc(N(C)C)cc2)C3=O)CC1` [NPA2] here?
A: Its IC50 is 172 µM.

Q: Which IC50 does the source give for `CCCN1CC=C(c2c(OC)cc(OC)c3c2O/C(=C\c2ccc(Cl)cc2)C3=O)CC1` [NPA4] here?
A: Its IC50 is 102 µM.

Q: With `CCCN1CC=C(c2c(OC)cc(OC)c3c2O/C(=C\c2ccc(OC)c(OC)c2)C3=O)CC1` [NPA5] as the compound, how does the IC50 read?
A: Its IC50 is 99.9 µM.

System: MCF-7
Experiment: MTT cytotoxicity assay on MCF-7
Format: cell-based
Details: 24 h, read-out: Inhibition of cell proliferation, IC50, MCF-7
Protocol: as §1, §2

Q: For `CCCN1CC=C(c2c(OC)cc(OC)c3c2O/C(=C\c2ccc4ccccc4c2)C3=O)CC1` [NPA1], which IC50 is on record?
A: The IC50 was 75 µM.

Q: Which IC50 does the source give for `CCCN1CC=C(c2c(OC)cc(OC)c3c2O/C(=C\c2ccc(N(C)C)cc2)C3=O)CC1` [NPA2] here?
A: Its IC50 is 46.9 µM.

Q: With `CCCN1CC=C(c2c(OC)cc(OC)c3c2O/C(=C\c2ccccc2Br)C3=O)CC1` [NPA3] as the compound, how does the IC50 read?
A: The IC50 was 53.9 µM.

Q: With `CCCN1CC=C(c2c(OC)cc(OC)c3c2O/C(=C\c2ccc(Cl)cc2)C3=O)CC1` [NPA4] as the compound, how does the IC50 read?
A: Its IC50 is 42.1 µM.

Q: Which IC50 does the source give for `CCCN1CC=C(c2c(OC)cc(OC)c3c2O/C(=C\c2ccc(OC)c(OC)c2)C3=O)CC1` [NPA5] here?
A: Its IC50 is 68.5 µM.

System: HCT 116
Experiment: MTT cytotoxicity assay on HCT 116
Format: cell-based, Human
Details: 24 h, read-out: Inhibition of cell proliferation, IC50, HCT 116
Protocol: as §1, §2

Q: Which IC50 does the source give for `CCCN1CC=C(c2c(OC)cc(OC)c3c2O/C(=C\c2ccc4ccccc4c2)C3=O)CC1` [NPA1] here?
A: Its IC50 is 94.3 µM.

Q: For `CCCN1CC=C(c2c(OC)cc(OC)c3c2O/C(=C\c2ccc(N(C)C)cc2)C3=O)CC1` [NPA2], which IC50 is on record?
A: The IC50 was 87.3 µM.

Q: For `CCCN1CC=C(c2c(OC)cc(OC)c3c2O/C(=C\c2ccccc2Br)C3=O)CC1` [NPA3], which IC50 is on record?
A: Its IC50 is 67.9 µM.

Q: Which IC50 does the source give for `CCCN1CC=C(c2c(OC)cc(OC)c3c2O/C(=C\c2ccc(Cl)cc2)C3=O)CC1` [NPA4] here?
A: The IC50 was 44 µM.

Q: For `CCCN1CC=C(c2c(OC)cc(OC)c3c2O/C(=C\c2ccc(OC)c(OC)c2)C3=O)CC1` [NPA5], which IC50 is on record?
A: Its IC50 is 74.3 µM.

System: not listed separately
Experiment: DPPH. free radical scavenging assay
Details: not given
Protocol: DPPH. assay was performed using 96-well plate by serial dilution method. The dilution of methanolic stock solution of the test compounds and standard anti-oxidants was carried out to obtain concentration in the range of 3.9–1000 µM. Quercetin and ascorbic acid were used as standards. To a 100 μL of this solution, 100 μL of 200 µM DPPH^. in methanolic solution was added. The experiment was done in triplicate and the plate was then incubated for 30 min in the dark and later the absorbance was measured at 517 nm using Elisa reader. The percentage DPPH^. Scavenging was calculated using the formula, (Control Absorbance–Test Absorbance)*100/(Control Absorbance). The anti-oxidant activity of the test compounds was expressed in terms of concentration required for 50 percentage inhibition (IC50) (Collins [2005]).

Q: For `CCCN1CC=C(c2c(OC)cc(OC)c3c2O/C(=C\c2ccc4ccccc4c2)C3=O)CC1` [NPA1], which IC50 is on record?
A: Its IC50 is 133 ± 19.1 µM.

Q: With `CCCN1CC=C(c2c(OC)cc(OC)c3c2O/C(=C\c2ccc(N(C)C)cc2)C3=O)CC1` [NPA2] as the compound, how does the IC50 read?
A: The IC50 was 119 ± 12.9 µM.

Q: With `CCCN1CC=C(c2c(OC)cc(OC)c3c2O/C(=C\c2ccccc2Br)C3=O)CC1` [NPA3] as the compound, how does the IC50 read?
A: The IC50 was 159 ± 13.9 µM.

Q: With `CCCN1CC=C(c2c(OC)cc(OC)c3c2O/C(=C\c2ccc(Cl)cc2)C3=O)CC1` [NPA4] as the compound, how does the IC50 read?
A: Its IC50 is 162.34 ± 0.06 µM.

Q: For `CCCN1CC=C(c2c(OC)cc(OC)c3c2O/C(=C\c2ccc(OC)c(OC)c2)C3=O)CC1` [NPA5], which IC50 is on record?
A: Its IC50 is 89.7 ± 9.65 µM.

Q: For `O=c1c(O)c(-c2ccc(O)c(O)c2)oc2cc(O)cc(O)c12` [Quercetin, reference compound], which IC50 is on record?
A: Its IC50 is 31.42 ± 0.09 µM.
